# Test system: liver transcriptome
# Experiment: AmpliSeq liver transcriptome of HFD-F mice
# Type: in vivo
# Settings: liver
# Text: C57BL/6J male mice were fed a high fat diet (HFD) containing 59 KJ% fat plus 1% cholesterol, w/o sugar (ssniff ® EF R/M acc. D12330 mod. 22,7 ME/kg) and fructose (HFD-F) in drinking water (42 g/L), or normal chow diet for 61 days. Food intake was estimated as the difference of weight between the offered and the remnant amount of food at 3-days intervals. The food was provided as pressed pellets and the residual spillage was not considered. After 7 days, HFD-F mice were randomized to receive HFD-F alone or in combination with compound 2 (30 mg/kg/day) by gavage until the end of the experiment. Doses of each agent were chosen according to previously published data. Mice were housed under controlled temperature (22°C) and photoperiods (12:12-h light/dark cycle), allowed unrestricted access to standard mouse chow and tap water. The experimental protocol was approved by the Animal Care and Use Committee of the University of Perugia and by the Italian Minister of Health and Istituto Superiore di Sanità (Italy) and was in agreement with the European guidelines for use of experimental animals (permission n. 583/2017-PR). The general health of the animals was monitored daily by the Veterinarian in the animal facility. At the day of sacrifice, fed mice were deeply anesthetized with a mixture of tiletamine hypochloride and zolazepam hypochloride/xylazine at a dose of 50/5 mg/kg and sacrificed before 12 a.m.
# High-quality RNA was extracted from mice livers, using the Direct-zol™ RNA MiniPrep w/Zymo-Spin™ IIC Columns (Zymo Research, Irvine, CA) according to the manufacturer’s instructions. RNA quality and quantity were assessed with the Qubit® RNA HS Assay Kit and a Qubit 3.0 fluorometer (Invitrogen, Carlsbad, CA) followed by agarose gel electrophoresis. Libraries were generated using the Ion AmpliSeq™ Transcriptome Mouse Gene Expression Core Panel and Chef-Ready Kit (Comprehensive evaluation of AmpliSeq transcriptome, a whole transcriptome RNA sequencing methodology) (Thermo Fisher Scientific, Waltham, MA). Briefly, 10 ng of RNA was reverse transcribed with SuperScript™ Vilo™ cDNA Synthesis Kit (Thermo Fisher Scientific, Waltham, MA) before library preparation on the Ion Chef™ instrument (Thermo Fisher Scientific, Waltham, MA). The resulting cDNA was amplified to prepare barcoded libraries using the Ion Code™ PCR Plate, and the Ion AmpliSeq™ Transcriptome Mouse Gene Expression Core Panel (Thermo Fisher Scientific, Waltham, MA), Chef-Ready Kit, according to the manufacturer’s instructions. Barcoded libraries were combined to a final concentration of 100 p.m., and used to prepare Template-Positive Ion Sphere™ (Thermo Fisher Scientific, Waltham, MA) Particles to load on Ion 540™ Chips, using the Ion 540™ Kit-Chef (Thermo Fisher Scientific, Waltham, MA). Sequencing was performed on an Ion S5™ Sequencer with Torrent Suite™ Software v6 (Thermo Fisher Scientific, Waltham, MA). The analyses were performed with a range of fold <−2 and >+2 and a p value <0.05, using Transcriptome Analysis Console Software (version 4.0.1), certified for AmpliSeq analysis (Thermo-Fisher). The transcriptomic data have been deposited as dataset on Mendeley data repository (reference number linking to the repository: Fiorucci, Stefano; Biagioli, Michele; Marchianò, Silvia; Di Giorgio, Cristina (2021), “Discovery of potent dual GPBAR1/CysLT1R modulator for the treatment of metabolic fatty liver disease,” Mendeley Data, V1, doi: 10.17632/6dnrk9fc72.1).
smiles,measurement,setting,value
"O=C(O)c1cccc(-c2ccc(OCc3ccc4ccccc4n3)cc2)c1 [Compound 2, 4'-(quinolin-2-ylmethoxy)-[1,1′-biphenyl]-3-carboxylic acid]",Gdf15 transcript Avg (log2),HFD + compound 2,3.91 log2
same,Glipr1 transcript Avg (log2),HFD + compound 2,0.71 log2
same,Glipr2 transcript Avg (log2),HFD + compound 2,1.26 log2
same,Gm16063 transcript Avg (log2),HFD + compound 2,1.79 log2
same,Gm30692 transcript Avg (log2),HFD + compound 2,0.5 log2
same,Gm31555 transcript Avg (log2),HFD + compound 2,1.31 log2
same,Gm31649 transcript Avg (log2),HFD + compound 2,2.75 log2
same,Gm36796 transcript Avg (log2),HFD + compound 2,1.53 log2
same,Gnat1 transcript Avg (log2),HFD + compound 2,3.01 log2
same,Gngt1 transcript Avg (log2),HFD + compound 2,1.67 log2
same,Gpnmb transcript Avg (log2),HFD + compound 2,0.3 log2
same,Hnf4aos transcript Avg (log2),HFD + compound 2,3.75 log2
same,Hnrnpa0 transcript Avg (log2),HFD + compound 2,2.3 log2
same,Hspa5 transcript Avg (log2),HFD + compound 2,8.51 log2
same,Igip transcript Avg (log2),HFD + compound 2,2.38 log2
same,Il1b transcript Avg (log2),HFD + compound 2,1.8 log2
same,Il1rn transcript Avg (log2),HFD + compound 2,1.01 log2
same,Insig2 transcript Avg (log2),HFD + compound 2,5.39 log2
same,Itgam transcript Avg (log2),HFD + compound 2,0.58 log2
same,Kif20a transcript Avg (log2),HFD + compound 2,1.39 log2
same,LOC108167447 transcript Avg (log2),HFD + compound 2,2.05 log2
same,LOC108168323 transcript Avg (log2),HFD + compound 2,1.86 log2
same,Lactb2 transcript Avg (log2),HFD + compound 2,3.85 log2
same,Ly6d transcript Avg (log2),HFD + compound 2,1.72 log2
same,Meg3 transcript Avg (log2),HFD + compound 2,4.04 log2
same,Mettl9 transcript Avg (log2),HFD + compound 2,4.9 log2
same,Mki67 transcript Avg (log2),HFD + compound 2,1.5 log2
same,Mogat1 transcript Avg (log2),HFD + compound 2,2.35 log2
same,Mthfd2 transcript Avg (log2),HFD + compound 2,1.97 log2
same,Mvd transcript Avg (log2),HFD + compound 2,1.98 log2
same,Nat8 transcript Avg (log2),HFD + compound 2,3.26 log2
same,Neat1 transcript Avg (log2),HFD + compound 2,7.09 log2
same,Npas2 transcript Avg (log2),HFD + compound 2,0.62 log2
same,Nr4a1 transcript Avg (log2),HFD + compound 2,3.27 log2
same,Nrep transcript Avg (log2),HFD + compound 2,6.14 log2
same,Nuak2 transcript Avg (log2),HFD + compound 2,5.66 log2
same,Pcbp1 transcript Avg (log2),HFD + compound 2,2.29 log2
same,Pcp4l1 transcript Avg (log2),HFD + compound 2,3.46 log2
same,Pdilt transcript Avg (log2),HFD + compound 2,4.25 log2
same,Pdpn transcript Avg (log2),HFD + compound 2,0.96 log2
same,Per3 transcript Avg (log2),HFD + compound 2,5.27 log2
same,Plau transcript Avg (log2),HFD + compound 2,1.27 log2
same,Plaur transcript Avg (log2),HFD + compound 2,1.66 log2
same,Pld6 transcript Avg (log2),HFD + compound 2,4.01 log2
same,Plekhg3 transcript Avg (log2),HFD + compound 2,6.24 log2
same,Plxnc1 transcript Avg (log2),HFD + compound 2,2.12 log2
same,Pnpla3 transcript Avg (log2),HFD + compound 2,4 log2
same,Podn transcript Avg (log2),HFD + compound 2,3.56 log2
same,Ppp1r3c transcript Avg (log2),HFD + compound 2,4.08 log2
same,Prox1 transcript Avg (log2),HFD + compound 2,7.62 log2
same,Psat1 transcript Avg (log2),HFD + compound 2,0.72 log2
same,Ptgs2 transcript Avg (log2),HFD + compound 2,0.21 log2
same,Raet1e transcript Avg (log2),HFD + compound 2,1.49 log2
same,Raet1d transcript Avg (log2),HFD + compound 2,2.83 log2
same,Ralbp1 transcript Avg (log2),HFD + compound 2,3.21 log2
same,Rhob transcript Avg (log2),HFD + compound 2,3.81 log2
same,Rrs1 transcript Avg (log2),HFD + compound 2,1.59 log2
same,Saa4 transcript Avg (log2),HFD + compound 2,9.44 log2
same,Sart3 transcript Avg (log2),HFD + compound 2,4.81 log2
same,Sbk1 transcript Avg (log2),HFD + compound 2,4.33 log2
same,Sec11c transcript Avg (log2),HFD + compound 2,3.53 log2
same,Senp1 transcript Avg (log2),HFD + compound 2,3.87 log2
same,Serpina7 transcript Avg (log2),HFD + compound 2,4.57 log2
same,Serpine1 transcript Avg (log2),HFD + compound 2,2.19 log2
same,Slc16a1 transcript Avg (log2),HFD + compound 2,2.98 log2
same,Slc17a8 transcript Avg (log2),HFD + compound 2,2.05 log2
same,Slc39a8 transcript Avg (log2),HFD + compound 2,3.52 log2
same,Slc40a1 transcript Avg (log2),HFD + compound 2,3.94 log2
same,Slc46a3 transcript Avg (log2),HFD + compound 2,4.69 log2
same,Spon2 transcript Avg (log2),HFD + compound 2,1.99 log2
same,Sqle transcript Avg (log2),HFD-F + compound 2,1.02 log2
same,Stfa3 transcript Avg (log2),HFD-F + compound 2,0 log2
same,Taok3 transcript Avg (log2),HFD-F + compound 2,6.27 log2
same,Tk1 transcript Avg (log2),HFD-F + compound 2,5.13 log2
same,Tmx1 transcript Avg (log2),HFD-F + compound 2,5.44 log2
same,Tnf transcript Avg (log2),HFD-F + compound 2,0.14 log2
same,Tnfrsf23 transcript Avg (log2),HFD-F + compound 2,0.63 log2
same,Tnnc1 transcript Avg (log2),HFD-F + compound 2,1.54 log2
same,Tsku transcript Avg (log2),HFD-F + compound 2,4.72 log2
same,Ubqln2 transcript Avg (log2),HFD-F + compound 2,2.22 log2

# — paper PMC9085577, “Discovery of a Potent and Orally Active Dual GPBAR1/CysLT1R Modulator for the Treatment of Metabolic Fatty Liver Disease” (Frontiers in Pharmacology, 2022)
